According to US20170246137A1, “SULFESTROL FOR TREATING CANCER” (CHAMAELEO PHARMA BVBA, priority 2012, published 2017):
One block for each compound: values may come before it.

Columns and labels:
[1] = tested on: LNCaP; assay: In vitro direct cytotoxicity, Cell titer Blue viability, 72 hrs; type: cell-based
Method: (§1) Cells were harvested, washed, re-suspended into growth medium and counted.
(§2) Stocks of all compounds were then serially diluted. […] Positive control was Taxotere. Taxotere was diluted in 100% DSMO to give a stock concentration of 1 mM. Stock was serially diluted. Final concentrations to which cells were exposed were 1000, 333.3, 111.1, 37.0, 12.3, 4.1, 1.4, 0.5, and 0.2 nM.

[2] = tested on: DU-145; assay: as above; type: cell-based
Method: as §1, §2

[3] = tested on: MCF-7 breast cancer cells; conditions: cited from earlier work
[4] = tested on: DU-145 prostate cancer cells; conditions: cited from earlier work
[5] = In vitro metabolism in human liver microsomes (STS and CYP); type: in vitro ADME; conditions: for Contribution to metabolism / half-life at 5 μM / Half-life: 5 μM; for half-life at 5 μM: human, liver microsomes
Method: In vitro metabolism pathways of DES, Mono-Sulfestrol and Di-Sulfestrol in human liver microsomes were investigated.
Special emphasis was put on desulfatation by steroid sulfatase (STS) and oxidation by cytochrome P (CYP) metabolism. Liver microsomes (Celsis in vitro Technologies) were used at a concentration of 0.5 mg/ml in a volume of 600 μl phosphate buffer pH 7.4. Estrone-3-sulfate was used as positive control.
5 μM of each compound (test and control compound) was added to the liver microsomes and the mixture was incubated at 37° C. for 5, 10, 20, 30, 50, 90 and 120 minutes. After incubation, aliquots of 45 μl were taken which were subsequently quenched with 150 μl ice cold methanol. Aliquots were incubated ≧1 h at −20° C. for protein precipitation. After precipitation, samples were centrifuged and remaining supernatant was used for analysis with LC-MS/MS. Half life of the compounds, speed of metabolism or intrinsic clearance (Clint), and contribution to metabolism of CYP and STS metabolism were calculated based on the data obtained at each time point.

[6] = Estrogenic activity: body weight and plasma cholesterol levels; type: in vivo, male Sprague-Dawley rats; conditions: for Mean bodyweight: in g (unit assumed)
Method: Estrogenic activity was determined by measuring body weight and plasma cholesterol levels.
Each animal was dosed three times a day with vehicle or test compound (1st dose 7:30-8:00, 2nd dose 12:30-13:00, 3rd dose 17:00-17:30) for 14 consecutive days.
After 14 days treatment, blood was collected from the animals via cardiac puncture 4 hrs past final dosing to analyze plasma cholesterol levels. The blood was immediately transferred to a tube containing 0.5M EDTA anticoagulant. It was mixed gently and centrifuged at 1000×g at 4° C. for 15 min. Plasma was aspirated from the centrifuged blood samples, quick frozen on dry ice and stored at −80° C. for later use.
Plasma cholesterol levels were determined using a commercial ELISA kit obtained from NovaTeinBio (BG-RAT11262). Standard protocol accompanied by the kit was used without any adjustments.

[7] = tested on: platelet-rich plasma (PRP); assay: Platelet-aggregation-inducing effects in platelet-rich plasma, absorbance 630 nm; type: cell-based; conditions: 7 minutes, human PRP
Method: Blood necessary to generate PRP was obtained from 4 healthy human volunteers. 100 ml of fresh venous blood from each donor was isolated directly into tubes containing 1/10th volume of the anti-coagulant Tri-Sodium Citrate (3.2% w/v). The blood and anti-coagulant were immediately mixed and the final concentration of Tri-Sodium Citrate was 0.0106 M.
PRP was prepared by centrifugation of anti-coagulated blood at 180 g for 10 minutes at room temperature. The cloudy yellow supernatant containing the platelets was removed and placed into a clean polypropylene tube. Platelet-poor plasma (PPP) was prepared by centrifuging the remaining sample at 1,200 g for 20 minutes at room temperature. The PRP was adjusted to a suitable platelet count and absorbance at 630 nm by addition of PPP.
All three compounds were dissolved in 100% DMSO to give a stock concentration of 60 mM. […] […] 100 nM gamma thrombin (Cambridge bioscience) was used as control for platelet aggregation. 90 μl aliquots of PRP were added to 96 wells plates. A baseline absorbance reading was taken at 630 nm. 5 μl of the compounds and gamma thrombin control was added to the appropriate PRP.
The plates were incubated at room temperature for 7 minutes on a plate shaker with continuous shaking. A second A630 nm reading was made after the 7 minutes incubation to measure any platelet aggregation induced by the compounds.

[8] = tested on: MDA-MB-231; assay: In vitro direct cytotoxicity, Cell titer Blue viability, 72 hrs; conditions: MDA-MB231
Method: (§3) Cells were maintained in vitro in RPMI 1640 containing 10% (v/v) heat inactivated FBS and 2 mM L-glutamine (growth media) at 37° C. in 5% CO2 and humidified conditions. Cells were harvested, washed, resuspended into growth medium and counted. The cells were re-suspended into assay media (RPMI 1640+1% (v/v) heat inactivated FBS+ and 2 mM L-glutamine) at 0.5-1×10^5 cells/ml (dependent upon cell type) and plated into 96-well assay plates (Corning, black-wall plates) in 50 ul/well aliquots.
(§4) Plates were incubated overnight at 37° C. in 5% humidified CO2 prior to addition of the compounds. […] Stocks of all compounds were then serially diluted. Final concentrations to which cells were exposed were 300, 150, 75, 37.5, 18.75, 9.4, 4.7, 2.3, 1.2, 0.6 μM. Positive control was Cisplatin. Cisplatin was diluted in 1% FBS media to give a stock concentration of 1 mM. Cisplatin stock was then serially diluted. Final concentrations to which cells were exposed were 100, 50, 25, 12.5, 6.3, 3.1, 1.6, 0.8, 0.4, 0.2 μM.
(§5) Plates were incubated for 72 hrs at 37° C. in 5% humidified CO2 after addition of the compounds. Viability of the cells was assessed with the Cell titer Blue™ (Promega) assay. 10 μl of Cell titer Blue™ reagents was added to each test/blank well. Plates were incubated 3 h at 37° C. in 5% humidified CO2 prior to analysis. Fluorescence was measured with a Flex II station plate reader. Excitation wavelength was 570 nm, emission wave length was 600 nm, cut off was 590 nm. Raw data was processed by GraphPad Prism to calculate mean, standard deviation and IC50 values.

[9] = tested on: MCF7; assay: as above; conditions: MCF7
Method: as §3, §4, §5

[10] = tested on: prostate cancer cells; conditions: cited from earlier work
[11] = patients suffering from prostate cancer, 5 mg p.o. per day; cited from earlier work
[12] = + NADPH + 667-Coumate (STS inactive, CYP active)
[13] = nothing added (STS active, CYP inactive)

Compound: CC/C(=C(/CC)c1ccc(O)cc1)c1ccc(O)cc1 [DES, diethylstilbestrol, reference compound]
cytotoxicity in vitro (in words) [1]: cytotoxic
cytotoxicity in vitro (in words) ([2]; DU-145): cytotoxic
effect on cell growth in vitro (in words) [3]: reduced cell growth in vitro
cytotoxic effects (in words) [4]: cytotoxic effects
metabolism pathway in human liver microsomes (in words) [5]: only processed by CYP metabolism
Contribution to metabolism [5, 12]: 131%
half-life at 5 μM ([5]; pH 7.4, + NADPH (STS and CYP active)): 18 min
half-life at 5 μM ([5]; pH 7.4, nothing added (STS active, CYP inactive)): 194 min
half-life at 5 μM ([5]; pH 7.4, with 667-Coumate (STS inhibitor; concentration not stated), + NADPH + 667-Coumate (STS inactive, CYP active)): 14 min
Contribution to metabolism [5, 13]: 9%
Mean bodyweight ([6]; Day 0, DES 1.5 mg/kg per day, Di-Sulfestrol 3 mg/kg per day, three doses a day): 382 ± 7.8
Mean bodyweight ([6]; Day 2): 379 ± 9.3
Mean bodyweight ([6]; Day 4): 361 ± 8.6
Mean bodyweight ([6]; Day 6): 350 ± 8.0
Mean bodyweight ([6]; Day 8): 342 ± 8.0
Mean bodyweight ([6]; Day 10): 341 ± 7.8
Mean bodyweight ([6]; Day 12): 337 ± 8.4
Mean bodyweight ([6]; Day 14): 339 ± 9.80
Cholesterol (plasma) ([6]; after 14 days treatment, 4 hrs past final dosing, DES 1.5 mg/kg per day, Di-Sulfestrol 3 mg/kg per day): 14.9 ± 0.724 nmol/L
estrogenic activity in rats (in words) ([6]; lowering body weight and cholesterol levels): show estrogenic activity
Absorbance (630 nm) ([7]; 2.3 μM, high absorbance = low aggregation): 0.264 ± 0.030
Absorbance (630 nm) ([7]; 4.7 μM): 0.266 ± 0.031
Absorbance (630 nm) ([7]; 9.4 μM): 0.264 ± 0.030
Absorbance (630 nm) ([7]; 18.75 μM): 0.264 ± 0.030
Absorbance (630 nm) ([7]; 37.5 μM): 0.264 ± 0.030
Absorbance (630 nm) ([7]; 75 μM): 0.268 ± 0.032
Absorbance (630 nm) ([7]; 150 μM): 0.263 ± 0.033
cytotoxicity in vitro (in words) [8]: cytotoxic
cytotoxicity in vitro (in words) [9]: cytotoxic
concentrations that do not influence prostate cancer cell growth [10]: up to 100 ng/ml
minimal concentration to induce cytotoxic effects [10]: 1 µg/mL
increase of non-cancer related deaths, mostly cardiovascular [11]: 36%

Contribution to metabolism [5, 12]: 19%
Half-life [5, 12]: 62 min
Contribution to metabolism [5, 13]: 44%
Half-life [5, 13]: 27 min
Compound: C[C@]12CC[C@@H]3c4ccc(OS(=O)(=O)O)cc4CC[C@H]3[C@@H]1CCC2=O [E-3-S, Estrone-3-sulfate]

Compound: CC(=O)O[C@@]12CO[C@@H]1C[C@H](O)[C@@]1(C)C(=O)[C@H](O)C3=C(C)[C@@H](OC(=O)[C@H](O)[C@@H](NC(=O)OC(C)(C)C)c4ccccc4)C[C@@](O)([C@@H](OC(=O)c4ccccc4)[C@H]21)C3(C)C [Taxotere, reference compound]
IC50 ([1]; Homo sapiens, hormone-dependent prostate cancer cell line, 72 hrs): 2 nM
IC50 ([2]; Homo sapiens, DU-145, hormone-independent prostate cancer cell line, 72 hrs): 4 nM
